In US20250250229A1, “ARYLTHIO DERIVATIVES WITH PHARMACOLOGICAL ACTIVITY” (IRIDEA S.R.L., priority 2022, published 2025):

How the values were obtained:
rat aorta rings = assay: Ex vivo assay of anti-angiogenic activity on rat aorta rings (VEGF-induced sprouting); type: cell-based; details: VEGF 30 ng/mL, compound 100 μM, counted after 6 days' incubation; VEGF alone 17 ± 4
Protocol: Ex Vivo Assays of Anti-Angiogenic Activity on Rat Aorta Rings
Thoracic aortas obtained from 5- to 10-week-old male rats were cut into rings measuring about 1 mm. The rings were placed on the base of a 24-well plate (positioning the luminal axis parallel to the base of the well), and incubated with a fibrin-polymerising solution. After 5 min, VEGF (30 ng/mL) was added to the wells in an appropriate culture medium in the presence or absence of the compounds according to the invention at the concentration of 100 μM. The medium was changed three times a week as from day 3. The angiogenic response was measured by counting the number of new vessels that sprouted over time (Table 1). The endothelial filaments were counted after 6 days' incubation.

[1] = system: chorioallantoic membrane (CAM); assay: In vivo assay on chorioallantoic membrane (CAM), VEGF165-induced neovascularisation; design: species or system hen; details: day 14, VEGF165 alone = 100
Protocol: In Vivo Assays on Chorioallantoic Membrane (CAM)
42 fertilised hens' eggs were disinfected with a 20% ethanol solution and incubated at a temperature of 37-38° C. and a humidity of 40-60% in a rotary egg incubator. The eggs were positioned horizontally and incubated for the next 11 days to promote embryo development.
On day 11, the position of the CAM was identified by candling for 36 eggs, the air chamber was removed, and slits made in the shell in order to position sterile paper filters saturated with the effectors at different concentrations (V=2.5 uL) on the CAM. On day 14, CAMs were photographed with a stereomicroscope (Carl Zeiss Vision GmbH). Quantitative analysis was conducted (count of vessels leading from the filter) by skeletonizing the images and using AngioTool64 0.6a software, and the percentage of neovascularisation at the various concentrations of effectors was determined (Table 2).

[2] = system: neutrophil and macrophage recruitment; assay: In vivo anti-inflammatory activity test, P. aeruginosa RP73 lung infection, BALF cell analysis; design: species or system C57Bl/6N mice; details: 12 mg/kg subcutaneous daily, BALF six days after infection, compared with carrier only
Protocol: In Vivo Anti-Inflammatory Activity Test Immunocompetent C57Bl/6N male mice (8-10 weeks) were infected with strains of P. aeruginosa RP73 (4-6×10^5 CFU, Colony Forming Units), incorporated in agar microbeads. The microbeads were prepared by following the procedures described in the literature (Bayes H K, Ritchie N, Irvine S, Evans T J. A murine model of early Pseudomonas aeruginosa lung disease with transition to chronic infection. Sci Rep. 2016 Nov. 2; 6:35838. doi: 10.1038/srep35838), and they were administered to the mice by intratracheal injection. Subcutaneous administration of the compounds according to the invention at the concentration of 12 mg/kg, or of the carrier, was conducted on the mice 18 hours before inoculation of the bacterium, and repeated daily for 6 days. The general state of health of the mice was analysed once or twice a day throughout the duration of the experiment. Six days after infection, the mice were euthanised by carbon dioxide inhalation. Bronchoalveolar lavage fluid analysis (BALF) indicated a significant reduction in the number of neutrophils in the treated mice compared with those treated with the carrier only.

[3] = VEGF165 0.1 ug + compound 0.0001 ug on filter
[4] = VEGF165 0.1 ug + compound 0.001 ug on filter
[5] = VEGF165 0.1 ug + compound 0.01 ug on filter
[6] = VEGF165 0.1 ug + compound 0.1 ug on filter
[7] = VEGF165 0.1 ug + compound 1 ug on filter

| Compound | Endothelial filaments (standardised for the number of rings) (rat aorta rings) | Vascularisation (%) [1, 3] [%] | Vascularisation (%) [1, 4] [%] | Vascularisation (%) [1, 5] [%] | Vascularisation (%) [1, 6] [%] | Vascularisation (%) [1, 7] [%] | Macrophages (%) [2] [%] | Neutrophils (%) [2] [%] | Total cells (%) [2] [%] |
| --- | --- | --- | --- | --- | --- | --- | --- | --- | --- |
| CC(C)(C)c1cc(NC(=O)CCN=C(N)N)c(SCCc2ccccc2)c(NC(=O)CCN=C(N)N)c1 [IRI-N-19001, N,N′-(5-(tert-butyl)-2-(phenethylthio)-1,3-phenylene)bis(3-((diaminomethylene)amino)propanamide)] | 1.0 ± 0.4 | 45 | 37 | 33 | 26 | 10 | −10 ± 3 | −61 ± 5 | −55 ± 12 |
| CC(C)(C)c1cc(NC(=O)CCN=C(N)N)c(SCc2ccc3ccccc3c2)c(NC(=O)CCN=C(N)N)c1 [IRI-N-19004, N,N′-(5-(tert-butyl)-2-((naphthalen-2-ylmethyl)thio)-1,3-phenylene)bis(3-((diaminomethylene)amino)propanamide)] | 1.2 ± 0.5 | 38 | 33 | 24 | 19 | 8 | −5 ± 4 | −58 ± 8 | −56 ± 8 |
| CC(C)(C)c1cc(NC(=O)CCCN=C(N)N)c(SCCc2ccccc2)c(NC(=O)CCCN=C(N)N)c1 [IRI-N-19025, N,N′-(5-(tert-butyl)-2-(phenethylthio)-1,3-phenylene)bis(4-((diaminomethylene)amino)butanamide)] | 1.9 ± 1.1 | – | – | – | – | – | −8 ± 5 | −55 ± 9 | −50 ± 10 |
| N,N′-(2-(benzylthio)-5-(tert-butyl)-1,3-(phenylene)bis(3-((diaminomethylene)amino) propanamide) [IRI-N-19002] | 1.4 ± 0.5 | 48 | 42 | 36 | 31 | 13 | −9 ± 4 | −60 ± 6 | −54 ± 9 |
